Results reported in patent US7659270B2, “Hepatitis C virus inhibitors” (Bristol-Myers Squibb Company, priority 2006, dated 2010).

System: HCV 1b-377-neo replicon cells
Experiment: HCV replicon assay (HCV 1b-377-neo replicon cells)
Format: cell-based, Hepatitis C virus genotype 1b
Details: Hepatitis C virus, read-out: EC50 range against HCV 1b (Range)
Method in brief: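 HCV genotype 1b (1b-377-neo) replicon cells, run as a validated replicon assay; parallel testing in replicon cells carrying the NS5A Y2065H resistance mutation.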

## CN(C)[C@@H](C(=O)N1CCC[C@H]1c1ncc(-c2ccc(-c3ccc(-c4cnc([C@@H]5CCCN5C(=O)[C@@H](c5ccccc5)N(C)C)[nH]4)cn3)cc2)[nH]1)c1ccccc1 [Example 132, (1R)-2-((2S)-2-(5-(6-(4-(2-((2S)-1-((2R)-2-(dimethylamino)-2-phenylacetyl)-2-pyrrolidinyl)-1H-imidazol-5-yl)phenyl)-3-pyridinyl)-1H-imidazol-2-yl)-1-pyrrolidinyl)-N,N-dimethyl-2-oxo-1-phenylethanamine]
  EC50: 0.01 to 0.999 nM
